# Test results taken from ChEMBL document CHEMBL1201862, “PubChem BioAssay data set” (2004).
#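 Five compound concentrations were applied to cells in 96-well plates for 48 hours; endpoints were derived by simple linear interpolation of the resulting dose-response curve. Abbreviation: GI50, concentration required for 50% inhibition of growth.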 The source made the active and inactive calls. Cut-off read from the data, not from the text of the source: active = GI50 up to about 1.1 µM and inactive = higher.
# Tests used:
# Test in all cases: NCI-60 cell line screen, 48 h
# TK-10 = test system: TK-10
# MDA-N = test system: MDA-N
# SF-295 = test system: SF-295
# SN12C = test system: SN12C
# M14 = test system: M14
# T47D = test system: T47D
# OVCAR-8 = test system: OVCAR-8
# OVCAR-4 = test system: OVCAR-4
# SNB-75 = test system: SNB-75
# NCI-H460 = test system: NCI-H460
# A549 = test system: A549
# HT-29 = test system: HT-29
# HCT-116 = test system: HCT-116
# OVCAR-5 = test system: OVCAR-5
# CCRF-CEM = test system: CCRF-CEM
# SK-OV-3 = test system: SK-OV-3
# UACC-257 = test system: UACC-257
# SR = test system: SR
# RPMI-8226 = test system: RPMI-8226
# HOP-92 = test system: HOP-92
# NCI-H23 = test system: NCI-H23
# SK-MEL-2 = test system: SK-MEL-2
# MCF7 = test system: MCF7
# NCI/ADR-RES = test system: NCI/ADR-RES
# SNB-19 = test system: SNB-19
# K562 = test system: K562
# 786-0 = test system: 786-0
# EKVX = test system: EKVX
# MDA-MB-435 = test system: MDA-MB-435
# HCC 2998 = test system: HCC 2998
# SW-620 = test system: SW-620
# NCI-H522 = test system: NCI-H522
# A498 = test system: A498
# ACHN = test system: ACHN
# DU-145 = test system: DU-145
# COLO 205 = test system: COLO 205
# BT-549 = test system: BT-549
# LOX IMVI = test system: LOX IMVI
# SK-MEL-5 = test system: SK-MEL-5
# SF-539 = test system: SF-539
# HL-60 = test system: HL-60
# RXF 393 = test system: RXF 393
# HOP-62 = test system: HOP-62
# MDA-MB-231 = test system: MDA-MB-231
# IGROV-1 = test system: IGROV-1
# CAKI-1 = test system: CAKI-1
# PC-3 = test system: PC-3
# MOLT-4 = test system: MOLT-4
# Malme-3M = test system: Malme-3M
# UO-31 = test system: UO-31
# SK-MEL-28 = test system: SK-MEL-28
# SF-268 = test system: SF-268
# U-251 = test system: U-251
# KM12 = test system: KM12
# Hs-578T = test system: Hs-578T
# HCT-15 = test system: HCT-15
# OVCAR-3 = test system: OVCAR-3
# UACC-62 = test system: UACC-62
# NCI-H226 = test system: NCI-H226
smiles,measurement,setting,value
CCCN(CCC)C(=S)N/N=C/c1ccccn1,GI50,TK-10,20.3 nM (active)
same,GI50,MDA-N,98.9 nM (active)
same,GI50,SF-295,46.8 nM (active)
same,GI50,SN12C,< 19.5 nM (active)
same,GI50,M14,< 12.5 nM (active)
same,GI50,T47D,< 10 nM (active)
same,GI50,OVCAR-8,< 10 nM (active)
same,GI50,OVCAR-4,< 10 nM (active)
same,GI50,SNB-75,58.6 nM (active)
same,GI50,NCI-H460,10.3 nM (active)
same,GI50,A549,< 13.8 nM (active)
same,GI50,HT-29,< 10 nM (active)
same,GI50,HCT-116,< 10 nM (active)
same,GI50,OVCAR-5,< 48.2 nM (active)
same,GI50,CCRF-CEM,< 10 nM (active)
same,GI50,SK-OV-3,< 12 nM (active)
same,GI50,UACC-257,< 10 nM (active)
same,GI50,SR,< 10 nM (active)
same,GI50,RPMI-8226,< 10 nM (active)
same,GI50,HOP-92,169 nM (active)
same,GI50,NCI-H23,< 10 nM (active)
same,GI50,SK-MEL-2,< 38.5 nM (active)
same,GI50,MCF7,< 10 nM (active)
same,GI50,NCI/ADR-RES,< 10 nM (active)
same,GI50,SNB-19,282 nM (active)
same,GI50,K562,< 10 nM (active)
same,GI50,786-0,< 10 nM (active)
same,GI50,EKVX,46 nM (active)
same,GI50,MDA-MB-435,170 nM (active)
same,GI50,HCC 2998,398 nM (active)
same,GI50,SW-620,< 14 nM (active)
same,GI50,NCI-H522,< 10 nM (active)
same,GI50,A498,37.2 nM (active)
same,GI50,ACHN,< 10 nM (active)
same,GI50,DU-145,143 nM (active)
same,GI50,COLO 205,< 18.6 nM (active)
same,GI50,BT-549,341 nM (active)
same,GI50,LOX IMVI,< 10 nM (active)
same,GI50,SK-MEL-5,< 17.3 nM (active)
same,GI50,SF-539,118 nM (active)
same,GI50,HL-60,< 10 nM (active)
same,GI50,RXF 393,56.6 nM (active)
same,GI50,HOP-62,< 10 nM (active)
same,GI50,MDA-MB-231,< 10 nM (active)
same,GI50,IGROV-1,< 10 nM (active)
same,GI50,CAKI-1,16.9 nM (active)
same,GI50,PC-3,< 10 nM (active)
same,GI50,MOLT-4,< 10 nM (active)
same,GI50,Malme-3M,46.3 nM (active)
same,GI50,UO-31,23.9 nM (active)
same,GI50,SK-MEL-28,170 nM (active)
same,GI50,SF-268,< 13.5 nM (active)
same,GI50,U-251,< 13.8 nM (active)
same,GI50,KM12,< 13.9 nM (active)
same,GI50,Hs-578T,2960 nM (inactive)
same,GI50,HCT-15,< 10 nM
same,GI50,OVCAR-3,< 10 nM (active)
CC(C)=CCNc1ncnc2c1ncn2CCC#N,GI50,TK-10,> 100000 nM (inactive)
same,GI50,MDA-N,> 100000 nM (inactive)
same,GI50,SF-295,> 100000 nM (inactive)
same,GI50,SN12C,> 100000 nM (inactive)
same,GI50,M14,> 100000 nM (inactive)
same,GI50,T47D,> 100000 nM (inactive)
same,GI50,UACC-62,> 100000 nM (inactive)
same,GI50,NCI-H226,> 100000 nM (inactive)
same,GI50,OVCAR-8,> 100000 nM (inactive)
same,GI50,OVCAR-4,45100 nM (inactive)
same,GI50,SNB-75,19800 nM (inactive)
same,GI50,NCI-H460,> 100000 nM (inactive)
same,GI50,A549,> 100000 nM (inactive)
same,GI50,HT-29,> 100000 nM (inactive)
same,GI50,HCT-116,> 100000 nM (inactive)
same,GI50,OVCAR-5,> 100000 nM (inactive)
same,GI50,CCRF-CEM,> 100000 nM (inactive)
same,GI50,SK-OV-3,> 100000 nM (inactive)
same,GI50,SR,> 100000 nM (inactive)
same,GI50,RPMI-8226,> 100000 nM (inactive)
same,GI50,HOP-92,> 100000 nM (inactive)
same,GI50,NCI-H23,> 100000 nM (inactive)
same,GI50,MCF7,> 100000 nM (inactive)
same,GI50,NCI/ADR-RES,> 100000 nM (inactive)
same,GI50,SNB-19,> 100000 nM (inactive)
same,GI50,K562,> 100000 nM (inactive)
same,GI50,786-0,> 100000 nM (inactive)
same,GI50,MDA-MB-435,> 100000 nM (inactive)
same,GI50,HCC 2998,> 100000 nM (inactive)
same,GI50,SW-620,> 100000 nM (inactive)
same,GI50,NCI-H522,> 100000 nM (inactive)
same,GI50,A498,> 100000 nM (inactive)
same,GI50,ACHN,> 100000 nM (inactive)
same,GI50,DU-145,> 100000 nM (inactive)
same,GI50,COLO 205,> 100000 nM (inactive)
same,GI50,BT-549,> 100000 nM (inactive)
same,GI50,LOX IMVI,> 100000 nM (inactive)
same,GI50,SK-MEL-5,> 100000 nM (inactive)
same,GI50,SF-539,> 100000 nM (inactive)
same,GI50,HL-60,> 100000 nM (inactive)
same,GI50,RXF 393,2210 nM (inactive)
same,GI50,HOP-62,> 100000 nM (inactive)
same,GI50,MDA-MB-231,> 100000 nM (inactive)
same,GI50,IGROV-1,> 100000 nM (inactive)
same,GI50,PC-3,> 100000 nM (inactive)
same,GI50,MOLT-4,> 100000 nM (inactive)
same,GI50,Malme-3M,> 100000 nM (inactive)
same,GI50,UO-31,> 100000 nM (inactive)
same,GI50,SK-MEL-28,> 100000 nM (inactive)
same,GI50,SF-268,> 100000 nM (inactive)
same,GI50,U-251,> 100000 nM (inactive)
same,GI50,KM12,> 100000 nM (inactive)
same,GI50,Hs-578T,> 100000 nM (inactive)
same,GI50,HCT-15,> 100000 nM
same,GI50,OVCAR-3,> 100000 nM (inactive)
